In patent US11590129B2, “Combination therapy with an antitumor alkaloid” (PHARMA MAR, S.A., priority 2010, dated 2023):

Key:
[1] = tested on: HT-29 human colon adenocarcinoma cell line; assay: cells; details: HT-29, 72 hours drug exposure, MTT
In short: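 HT-29 cells (5,000/well) were attached for 24 h, then exposed to vehicle or compounds for 72 h. Viability was read by MTT reduction, with 8 h MTT at 37° C and formazan dissolved in DMSO. Values are % of control cell growth.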

[2] = tested on: IGROV-1 human ovarian adenocarcinoma cell line; assay: cells
[3] = tested on: JURKAT human leukemia cell line; assay: cells
Description: (§1) Additional serial dilutions were prepared in serum-free culture medium to achieve a final 4× concentration. Aliquots of 50 μL of each diluted compound were added per well.
(§2) JURKAT and MOLT-4 were the human leukemia cell lines selected for this assay, which were obtained from the American Type Culture Collection (ATCC).
(§3) Briefly, cells were seeded in 96 well microtiter plates at a density of 50000 cells per well in 150 μL of culture medium and incubated for 4-6 hours in drug-free medium before treatment with vehicle alone or test compounds for 72 hours.
(§4) After incubation, the cytotoxic effect was evaluated using a MTT reduction assay. 50 μL of MTT solution (1 mg/mL) were added to the wells and incubated for 15-17 hours at 37° C. until formazan crystals were formed. After gently removing the culture medium, DMSO was added to dissolve the insoluble purple formazan product into a colored solution. […] Results were expressed as percentage of control cell growth. The EC50 values (half-maximal effective concentration) used for the combination studies were calculated using Prism v5.02 software (GraphPad). EC50 was expressed as molar concentration and represented the mean of at least three independent assays.
(§5) b. In a second set of experiments, concentration-response curves for the agents tested, both alone and in two-drug combination, were performed, using the same methodology described in the previous paragraph.
(§6) Using these starting concentrations, constant serial dilutions were performed to generate the concentration-response curves for each set of drugs, alone and in combination.
(§7) Based on this equation, the term “combination index” (CI) is used as a quantitative measure of the degree of drug interactions. […] CI values were calculated by solving the equation for different values of fa (i.e., for different degrees of cell groth inhibition).
(§8) Data were analyzed using CalcuSyn software (Biosoft, Cambridge, UK). For statistical analysis and graphs Prism software (GraphPad, San Diego, USA) was used. All the results represent the mean of at least three independent experiments.

[4] = tested on: MOLT-4 human leukemia cell line; assay: cells
Description: as §1, §2, §3, §4, §5, §6, §7, §8

[5] = tested on: HGC-27 human gastric carcinoma cell line; assay: cells
[6] = tested on: RXF-393 human kidney carcinoma cell line; assay: cells
[7] = tested on: A673 human rhabdomyosarcoma cell line; assay: cells; details: A673, 72 hours drug exposure, MTT
In short: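 A673 cells seeded at 5,000 per well, grown 24 h drug-free, then exposed to compounds for 72 h. Viability by MTT reduction (8 h, 37 °C), formazan dissolved in DMSO. Results expressed as percentage of control cell growth.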

[8] = tested on: U87-MG human glioblastoma cell line; assay: cells
[9] = tested on: HepG2 human hepatocellular liver carcinoma cell line; assay: MTT cytotoxicity assay in HepG2 cells: IC50 of single agents and combinations with PM01183; assay type: cell-based; details: Homo sapiens, HepG2, 72 h
[10] = tested on: PANC-1 human pancreatic carcinoma cell line; assay: cells
Description: (§9) a. […] Briefly, cells were harvested and seeded in 96 well microtiter plates at a density of 5,000 cells in 150 μL of culture medium and incubated for 24 hours in drug-free medium before treatment with vehicle alone or test compounds for 72 h.
(§10) The cytotoxic effect was measured by the MTT reduction assay, in which 3-(4,5-Dimethylthiazol-2-yl)-2,5-diphenyltetrazolium bromide, a tetrazole, which is reduced to purple formazan in the mitochondria of living cells, was used. MTT (50 μL of 1 mg/mL stock solution) was added to the wells and incubated for 8 hours at 37° C. until formazan crystals were formed. After gently removing the culture medium, DMSO was added to dissolve the insoluble purple formazan product into a colored solution. […] Results were expressed as percentage of control cell growth.
(§11) b. In a second set of assays, A549 human tumor cells were incubated with PM01183 in combination with each of the agents mentioned above.
(§12) As a visual aid, response values were plotted on a scatter plot with dose ratios given on the x-axis and % response values on the y-axis. […] In cases where response values at the two endpoints were approximately equivalent, points lying above or below this predicted line of additivity could be interpreted as representing antagonistic or synergistic drug interaction, respectively.
as §1
PANC-1 was the human pancreatic carcinoma cell line selected for this assay.

[11] = tested on: RAMOS human lymphoma cell line; assay: cells
Description: as §3, §4, §6, §7, §8, §1
(§13) In the second set of assays, concentration-response curves for the agents tested, both alone and in two-drug combination, were performed.

[12] = tested on: U-937 human lymphoma cell line; assay: cells
Description: as §3, §4, §6, §7, §8, §1, §13

[13] = tested on: MDA-MB-231 human breast adenocarcinoma cell line; assay: cells
[14] = tested on: PC-3 human prostate cancer cell line; assay: cells
In short: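 Cells seeded at 5,000/well, grown 24 h drug-free, then exposed to vehicle or test compounds for 72 h. Viability by MTT reduction (8 h, 37 °C), formazan dissolved in DMSO. Values given as percentage of control cell growth.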

[15] = tested on: SK-MEL-2 human melanoma cell line; assay: cells
Description: as §9, §10, §11, §12, §1
SK-MEL-2 was the human melanoma cell line selected for this assay.

[16] = IGROV-1, 72 hours drug exposure, MTT
[17] = HGC-27, 72 hours drug exposure, MTT
[18] = RXF-393, 72 hours drug exposure, MTT
[19] = U87-MG, 72 hours drug exposure, MTT

aplidine gave an IC50 [1] of 1.76 nM, an IC50 [2, 16] of 1.5 nM and an EC50 ([3]; JURKAT, 72 hours exposure, MTT) of 13.8 nM. For the same molecule, the EC50 ([4]; MOLT-4, 72 hours exposure, MTT) was 1.27 nM, the IC50 [5, 17] was 9 nM and the IC50 [6, 18] was 1.5 nM. For the same molecule, the IC50 [7] was 2.16 nM and the IC50 [8, 19] was 3.8 nM.
Molecule `CN(Cc1cnc2nc(N)nc(N)c2n1)c1ccc(C(=O)N[C@@H](CCC(=O)O)C(=O)O)cc1` [Methotrexate, methotrexate] has an IC50 [9] of 39.6 nM, an IC50 ([2]; Homo sapiens, IGROV-1, 72 h) of 100000 nM and an IC50 ([10]; Homo sapiens, PANC-1, 72 h) of 10000 nM. It also gave an EC50 ([3]; Homo sapiens, Jurkat, 72 h) of 145 nM, an EC50 ([4]; Homo sapiens, MOLT-4, 72 h) of 43.9 nM and an EC50 ([11]; Homo sapiens, Ramos, 72 h) of 5020 nM. It also gave an EC50 ([12]; Homo sapiens, U-937, 72 h) of 26.3 nM, an IC50 ([5]; Homo sapiens, HGC-27, 72 h) of 33 nM and an IC50 ([13]; Homo sapiens, MDA-MB-231, 72 h) of 5940 nM. The IC50 ([6]; Homo sapiens, RXF 393, 72 h) was 175000 nM, the IC50 ([8]; Homo sapiens, U-87 MG, 72 h) was 50000 nM and the IC50 ([14]; Homo sapiens, PC-3, 72 h) was 120000 nM. For the same molecule, the IC50 ([15]; Homo sapiens, SK-MEL-2, 72 h) was 100000 nM.
`C/C=C1\NC(=O)[C@H](Cc2ccccc2)NC(=O)[C@@H](C(C)C)NC(=O)[C@@H]([C@@H](C)CC)NC(=O)[C@H](NC(=O)[C@H](NC(=O)[C@H](CCCN)NC(=O)[C@H]2CCCN2C(=O)[C@H](NC(=O)[C@@H](NC(=O)[C@@H](NC(=O)[C@H](NC(=O)CC[C@@H](C)CC)C(C)C)[C@@H](C)O)C(C)C)C(C)C)[C@@H](C)CC)[C@@H](C)OC(=O)[C@H](C(C)C)NC1=O` [PM02734, (4S)-MeHex-D-Val-L-Thr-L-Val-D-Val-D-Pro-L-Orn-D-allo-Ile-cyclo(D-allo-Thr-D-allo-Ile-D-Val-L-Phe-Z-Dhb-L-Val)] was tested, and the IC50 [1] was 214 nM, the IC50 [2, 16] was 333 nM and the IC50 ([10]; PANC-1, 72 hours drug exposure, MTT) was 9000 nM. The EC50 ([3]; JURKAT, 72 hours exposure, MTT) was 5500 nM, the EC50 ([4]; MOLT-4, 72 hours exposure, MTT) was 14400 nM and the EC50 ([11]; RAMOS, 72 hours exposure, MTT) was 13600 nM. The EC50 ([12]; U-937 tumor cell line, single agent) was 6850 nM, the IC50 [5, 17] was 950 nM and the IC50 ([13]; 72 h) was 2800 nM. The IC50 [6, 18] was 5000 nM, the IC50 [7] was 3600 nM and the IC50 [8, 19] was 4080 nM. The IC50 ([14]; 72 h) was 540 nM and the IC50 ([15]; SK-MEL-2, 72 hours drug exposure, MTT) was 1760 nM.
